Assay results reported in patent US20210195892A1, “COMPOSITION AND METHOD FOR MICROBIAL CONTROL ON MATERIAL SURFACES” (Microban Products Company, priority 2019, published 2021).
Counter-ions that a name gives are not always drawn.

What was measured:
Aspergillus niger (An) = test: ASTM E2180 protocol, fungus; type: cell-based
[1] = Thermogravimetric analysis (TGA) at 10° C./min; type: physicochemical; conditions: for temperature at which volatization started: TGA 10° C./min, FIG. 2
bacteria = test: Antibacterial efficacy of treated PP plaques (ISO 22196); type: cell-based; conditions: for bacterial efficacy per the ISO 22196 test: salts alone in PP, any active concentration up to 1%
Protocol: In addition to processing at 200° C., samples were run with PP at 250° C. to simulate the use of these GRAS acids in polymers that process at higher temperatures than polypropylene. Samples were also run using extended residence times in the injection molding machine (from the normal 30 second residence time to 120 seconds residence time) to simulate a process with a longer cycle time that would hold the polymer material at temperature for an extended period of time—the extended cycle were run at both 200° C. and 240° C.

For O=C(O)c1ccccc1 [GBA, benzoic acid], the “reduction in fungal growth” value (Aspergillus niger (An); incorporated into EVA) was “over 90%”, the “reductions in fungal growth” value (Aspergillus niger (An); incorporated into PE) was “over 99%” and the “temperature at which volatization started” value (from here on “temperature”) [1] was “approximately 100 °C”.
For O=C(O)CC(O)(CC(=O)O)C(=O)O [GCA, citric acid], the “temperature” value [1] was 200 °C and the antibacterial efficacy (bacteria; PP test plaques at 0.5% and 1% active level) was “good at the higher level but fell off at the lower level”.
For C/C=C/C=C/C(=O)[O-].[K+] [GKS, potassium sorbate], the “bacterial efficacy per the ISO 22196 test” value (bacteria) was “no significant bacterial efficacy”.
With O=C([O-])c1ccccc1.[Na+] [GNB, sodium benzoate] the “bacterial efficacy per the ISO 22196 test” value (bacteria) was “no significant bacterial efficacy”.
In the case of O=C(O)CC(O)(CC(=O)O)C(=O)O [GNC, sodium citrate], the “weight loss in TGA” value ([1]; TGA 10° C./min up to 275° C., attributed to water content) is reported as “approximately 10%” and the “bacterial efficacy per the ISO 22196 test” value (bacteria) is reported as “no significant bacterial efficacy”.
For C/C=C/C=C/C(=O)O [GSA, sorbic acid], the “temperature” value [1] was “approximately 100 °C” and the “efficacy as low as (level in PP)” value (bacteria; further experiments, PP) was 1000 ppm.
